Source: ChEMBL document CHEMBL6096732 (J Med Chem, 2025)
Active and inactive are the calls of the source. The calls are words filed in the database; no cut-off is given here.

Tests used:
[1] = AUC (0 to infinity) in male Sprague-Dawley rat at 2 mg/kg, iv measured after 12 hrs by LC-MS/MS analysis; format: ADME, organism-based; settings: in vivo
[2] = Clearance in male Sprague-Dawley rat at 2 mg/kg, iv measured after 12 hrs by LC-MS/MS analysis; format: ADME, organism-based; settings: in vivo
4T1 [3] = assay: Induction of DNA damage in mouse 4T1 cells assessed as upregulation of nuclear gamma-H2AX expression at 5 uM by DAPI staining based immunofluorescence analysis; format: functional, cell-based
[4] = target: Programmed cell death 1 ligand 1 (Mus musculus) (UniProt Q9EP73); assay: Induction of PD-L1 degradation in mouse B16-F10 cells assessed as decrease in PD-L1 protein level at 5 uM preincubated with MG132 for 4 hrs followed by compound addition and measured after 24 hrs by Western blot analysis; format: cell-based
Chain of Programmed cell death 1 ligand 1 (Mus musculus) (Q9EP73 whole entry): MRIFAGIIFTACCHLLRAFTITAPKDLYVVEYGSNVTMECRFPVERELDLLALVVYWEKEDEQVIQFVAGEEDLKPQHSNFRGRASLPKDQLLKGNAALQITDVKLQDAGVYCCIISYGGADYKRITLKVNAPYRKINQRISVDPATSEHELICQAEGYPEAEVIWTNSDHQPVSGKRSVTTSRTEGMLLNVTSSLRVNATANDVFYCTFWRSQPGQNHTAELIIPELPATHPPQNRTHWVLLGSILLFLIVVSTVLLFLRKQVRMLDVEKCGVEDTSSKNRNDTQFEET

Mus musculus = assay: Immunomodulatory activity in male C57BL/6 mouse model implanted with mouse B16-F10 cells assessed as increase in CD3+ CD8+ T cells in tumor at 50 mg/kg, po administered once daily for 14 days by flow cytometric analysis (reference value: 3.2 %); format: functional; settings: time 14 day
[5] = Toxicity in female BALB/c mouse model implanted with mouse 4T1 cells assessed as effect on body weight administrated orally as once daily dose via gavage for 14 days; settings: in vivo, po, 336 h, time 14 day
Histone deacetylase 8 = Histone deacetylase 8 (Homo sapiens, UniProt Q9BY41); assay: Inhibition of recombinant HDAC8 (unknown origin) using Boc-Lys(trifluoroacetyl)-AMC as substrate preincubated for 1 hr followed by substrate addition and measured after 2 hrs by fluorescence based micro plate reader analysis
Chain of Histone deacetylase 8 (Q9BY41 whole entry): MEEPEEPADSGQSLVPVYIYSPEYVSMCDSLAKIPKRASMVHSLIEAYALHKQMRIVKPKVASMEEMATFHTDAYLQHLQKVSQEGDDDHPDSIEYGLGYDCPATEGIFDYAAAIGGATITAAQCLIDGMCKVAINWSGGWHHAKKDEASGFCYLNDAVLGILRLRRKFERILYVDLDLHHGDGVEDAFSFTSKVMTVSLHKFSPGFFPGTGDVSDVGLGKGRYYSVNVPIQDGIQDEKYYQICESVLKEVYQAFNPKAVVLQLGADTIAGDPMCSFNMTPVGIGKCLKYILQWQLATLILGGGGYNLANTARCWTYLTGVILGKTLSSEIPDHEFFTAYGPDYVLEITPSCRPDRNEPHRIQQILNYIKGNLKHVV

4T1 [6] = assay: Antitumor activity against mouse 4T1 cells implanted in female BALB/c mouse model assessed as tumor growth inhibition administrated orally as once daily dose via gavage for 14 days relative to control; format: functional; settings: route po; time 14 day
4T1 [7] = assay: Downregulation of PARP1 expression in mouse 4T1 cells at 2 uM incubated for 24 hrs by Western blot analysis; format: functional, cell-based
4T1 [8] = assay: (§1) Antitumor activity against mouse 4T1 cells implanted in female BALB/c mouse model assessed as decrease in PAPR1 fluorescence intensity in tumor co-administrated orally with olaparib as once daily dose via gavage for 14 days by DAPI staining based immunofluorescence analysis; format: functional, cell-based; settings: route po, time 14.0 day
[9] = Clast in male Sprague-Dawley rat at 2 mg/kg, iv measured after 12 hrs by LC-MS/MS analysis; format: ADME, organism-based; settings: in vivo, read-out: Clast
B16-F10 [10] = assay: Inhibition of cell migration in mouse B16-F10 cells incubated for 24 to 48 hrs by crystal violet staining based microscopic analysis; format: functional; settings: dose 5-20 µM, time 24-48 hrs
4T1 [11] = assay: as §1, with “induction of DNA damage by measuring increase” for “decrease”, “gamma-H2AX” for “PAPR1”; format: functional, cell-based; settings: route po, time 14.0 day
4T1 [12] = assay: Downregulation of PARP1 expression in mouse 4T1 cells at 2 uM incubated for 24 hrs in presence of olaparib by Western blot analysis; format: functional, cell-based
[13] = MRT (0 to infinity) in male Sprague-Dawley rat at 20 mg/kg, po measured after 12 hrs by LC-MS/MS analysis; format: ADME, organism-based; settings: in vivo
[14] = VRT (0 to t) in male Sprague-Dawley rat at 2 mg/kg, iv measured after 12 hrs by LC-MS/MS analysis; format: ADME, organism-based; settings: in vivo
B16-F10 [15] = assay: Inhibition of cell migration in mouse B16-F10 cells assessed as wound area at 10 uM incubated for 24 hrs by wound healing assay (reference value: 50.36 +/- 1.68 %); format: functional; set-up: scale not given: the % may be the effect or the level left
[16] = Cmax in male Sprague-Dawley rat at 20 mg/kg, po measured after 12 hrs by LC-MS/MS analysis; format: ADME, organism-based; settings: in vivo
[17] = target: T1, Protein deacetylase HDAC6 (Homo sapiens) (UniProt Q9UBN7); settings: dose 500.0 nM, time 3.0 hrs
T1 sequence (whole entry): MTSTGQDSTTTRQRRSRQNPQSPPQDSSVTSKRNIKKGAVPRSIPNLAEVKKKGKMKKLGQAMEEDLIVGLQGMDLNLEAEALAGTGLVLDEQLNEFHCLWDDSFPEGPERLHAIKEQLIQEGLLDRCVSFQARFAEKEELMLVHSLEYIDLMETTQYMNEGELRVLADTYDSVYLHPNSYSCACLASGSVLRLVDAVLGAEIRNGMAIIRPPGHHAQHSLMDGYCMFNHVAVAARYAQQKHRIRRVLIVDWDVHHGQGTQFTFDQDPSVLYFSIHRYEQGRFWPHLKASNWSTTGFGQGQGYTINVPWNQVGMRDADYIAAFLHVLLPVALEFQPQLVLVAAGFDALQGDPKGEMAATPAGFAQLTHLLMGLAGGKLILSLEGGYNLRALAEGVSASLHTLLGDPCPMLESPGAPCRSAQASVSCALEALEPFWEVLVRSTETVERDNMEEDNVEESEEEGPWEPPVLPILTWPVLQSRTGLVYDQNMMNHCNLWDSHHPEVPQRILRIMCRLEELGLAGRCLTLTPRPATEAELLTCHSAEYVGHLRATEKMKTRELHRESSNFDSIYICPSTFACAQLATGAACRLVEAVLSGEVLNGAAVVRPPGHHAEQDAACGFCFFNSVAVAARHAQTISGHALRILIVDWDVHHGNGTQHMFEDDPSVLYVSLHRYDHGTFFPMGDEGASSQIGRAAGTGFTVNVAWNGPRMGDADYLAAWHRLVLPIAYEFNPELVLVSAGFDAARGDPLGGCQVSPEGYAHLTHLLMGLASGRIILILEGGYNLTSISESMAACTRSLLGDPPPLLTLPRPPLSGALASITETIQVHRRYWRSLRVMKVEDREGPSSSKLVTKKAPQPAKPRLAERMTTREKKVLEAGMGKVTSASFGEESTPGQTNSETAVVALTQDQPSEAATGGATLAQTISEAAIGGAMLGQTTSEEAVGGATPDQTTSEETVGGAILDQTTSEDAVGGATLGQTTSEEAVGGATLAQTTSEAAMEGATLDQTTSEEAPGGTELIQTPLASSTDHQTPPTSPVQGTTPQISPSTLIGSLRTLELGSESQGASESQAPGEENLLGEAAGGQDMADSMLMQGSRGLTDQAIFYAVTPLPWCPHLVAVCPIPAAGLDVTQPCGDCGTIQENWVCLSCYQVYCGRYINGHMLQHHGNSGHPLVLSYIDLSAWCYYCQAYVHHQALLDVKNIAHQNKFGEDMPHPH

B16-F10 [18] = assay: Effect on acetylated alpha-tubulin expression level in mouse B16-F10 cells at 5 to 20 uM incubated for 24 hrs by Western blot analysis; format: functional, cell-based; settings: dose 5-20 µM
[19] = target: Polyamine deacetylase HDAC10 (Homo sapiens, UniProt Q969S8); assay: Inhibition of recombinant HDAC10 (unknown origin) preincubated for 1 hr followed by substrate addition and measured after 2 hrs by fluorescence based micro plate reader analysis
Chain of Polyamine deacetylase HDAC10 (Q969S8 whole entry): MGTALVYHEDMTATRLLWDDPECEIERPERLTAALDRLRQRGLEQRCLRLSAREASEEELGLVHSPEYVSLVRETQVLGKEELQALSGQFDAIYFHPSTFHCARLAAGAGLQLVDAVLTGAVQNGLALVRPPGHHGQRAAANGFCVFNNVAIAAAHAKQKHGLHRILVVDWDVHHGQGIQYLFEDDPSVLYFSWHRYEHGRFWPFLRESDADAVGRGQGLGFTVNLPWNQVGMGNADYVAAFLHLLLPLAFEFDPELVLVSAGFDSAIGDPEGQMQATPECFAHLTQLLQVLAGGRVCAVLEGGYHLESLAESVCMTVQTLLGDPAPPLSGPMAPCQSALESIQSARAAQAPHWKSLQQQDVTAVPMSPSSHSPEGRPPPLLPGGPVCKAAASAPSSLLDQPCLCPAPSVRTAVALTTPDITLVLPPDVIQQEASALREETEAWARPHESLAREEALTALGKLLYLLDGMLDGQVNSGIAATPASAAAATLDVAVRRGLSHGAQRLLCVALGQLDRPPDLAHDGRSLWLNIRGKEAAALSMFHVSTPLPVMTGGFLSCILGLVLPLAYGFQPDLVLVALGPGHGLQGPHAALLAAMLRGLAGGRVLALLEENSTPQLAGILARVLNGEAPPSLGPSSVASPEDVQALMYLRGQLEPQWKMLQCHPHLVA

B16-F10 [20] = assay: Downregulation of PARP1 expression in mouse B16-F10 cells at 2 uM incubated for 24 hrs in presence of olaparib by Western blot analysis; format: functional, cell-based

CCCNNC(=O)c1ccc(Cn2c3ccccc3c3c(-c4ccccn4)nc4ccccc4c32)cc1
AUC(0-inf) [1]: 857 ng·h/mL | clearance [2]: 39.6 mL/min/kg | Activity (4T1 [3]): Active | Activity [4]: Active | Activity (Mus musculus): 25% | Activity [5]: Non-toxic | IC50 (Histone deacetylase 8): > 10 µM | TGI (4T1 [6]): 41% | Activity (4T1 [7]): Active | Activity (4T1 [8]): Active | concentration at 12 h [9]: 0.475 ng/mL | inhibition (B16-F10 [10]): Dose-dependent-effect | Activity (4T1 [11]): Active | Activity (4T1 [12]): Active | MRT inf [13]: 4.9 h | VRT(t) [14]: 0.641 hr2 | Activity (B16-F10 [15]): 10.25% | Cmax [16]: 1390 ng/mL | inhibition [17]: 17% | Activity (B16-F10 [18]): inactive | IC50 [19]: > 10 µM | Activity (B16-F10 [20]): Active
